Experimental data taken from ChEMBL document CHEMBL5512680, “Design, Synthesis, and Biological Evaluation of New 2,6,7-Substituted Purine Derivatives as Toll-like Receptor 7 Agonists for Intranasal Vaccine Adjuvants” (J Med Chem, 2024).
The source made the active and inactive calls. The rule behind the calls is not given here.

Legend:
[1] = biological target: T1, Toll-like receptor 7 (Homo sapiens, UniProt Q9NYK1); test: Agonist activity at human TLR7 expressed in HEK-blue TLR cells measured for 18 to 19 hrs by SEAP reporter gene based assay; format: cell-based
T1 sequence (Q9NYK1 whole entry): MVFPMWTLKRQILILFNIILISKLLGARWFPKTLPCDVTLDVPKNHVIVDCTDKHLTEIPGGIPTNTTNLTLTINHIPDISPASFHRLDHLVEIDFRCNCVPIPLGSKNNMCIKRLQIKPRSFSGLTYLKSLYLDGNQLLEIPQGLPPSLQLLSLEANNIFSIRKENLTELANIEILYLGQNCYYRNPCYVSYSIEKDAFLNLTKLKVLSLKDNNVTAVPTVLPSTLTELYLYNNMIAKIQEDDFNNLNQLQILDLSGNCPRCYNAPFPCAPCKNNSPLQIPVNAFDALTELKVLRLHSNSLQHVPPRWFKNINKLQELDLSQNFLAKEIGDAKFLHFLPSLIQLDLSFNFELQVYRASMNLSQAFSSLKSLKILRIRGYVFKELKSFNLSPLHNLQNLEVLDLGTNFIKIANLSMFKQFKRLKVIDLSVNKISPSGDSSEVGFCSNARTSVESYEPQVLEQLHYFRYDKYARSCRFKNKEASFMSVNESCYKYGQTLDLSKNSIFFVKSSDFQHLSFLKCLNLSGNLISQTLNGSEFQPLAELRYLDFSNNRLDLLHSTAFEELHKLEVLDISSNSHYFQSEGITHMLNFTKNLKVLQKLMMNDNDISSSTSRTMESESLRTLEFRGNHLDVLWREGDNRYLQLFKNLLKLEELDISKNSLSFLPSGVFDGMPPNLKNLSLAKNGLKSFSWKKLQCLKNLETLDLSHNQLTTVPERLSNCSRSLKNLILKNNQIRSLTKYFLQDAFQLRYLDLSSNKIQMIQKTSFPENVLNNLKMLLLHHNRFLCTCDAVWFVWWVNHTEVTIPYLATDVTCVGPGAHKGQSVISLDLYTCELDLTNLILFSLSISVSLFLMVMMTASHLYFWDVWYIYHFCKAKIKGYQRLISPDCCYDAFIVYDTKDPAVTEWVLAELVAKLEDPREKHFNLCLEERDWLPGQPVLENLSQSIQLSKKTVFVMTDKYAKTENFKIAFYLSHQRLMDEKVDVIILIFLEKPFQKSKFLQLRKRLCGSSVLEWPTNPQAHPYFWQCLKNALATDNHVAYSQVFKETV

[2] = biological target: T2, Toll-like receptor 8 (Homo sapiens, UniProt Q9NR97); test: Agonist activity at human TLR8 expressed in HEK-blue TLR cells measured for 18 to 19 hrs by SEAP reporter gene based assay; format: cell-based
T2 sequence (Q9NR97 whole entry): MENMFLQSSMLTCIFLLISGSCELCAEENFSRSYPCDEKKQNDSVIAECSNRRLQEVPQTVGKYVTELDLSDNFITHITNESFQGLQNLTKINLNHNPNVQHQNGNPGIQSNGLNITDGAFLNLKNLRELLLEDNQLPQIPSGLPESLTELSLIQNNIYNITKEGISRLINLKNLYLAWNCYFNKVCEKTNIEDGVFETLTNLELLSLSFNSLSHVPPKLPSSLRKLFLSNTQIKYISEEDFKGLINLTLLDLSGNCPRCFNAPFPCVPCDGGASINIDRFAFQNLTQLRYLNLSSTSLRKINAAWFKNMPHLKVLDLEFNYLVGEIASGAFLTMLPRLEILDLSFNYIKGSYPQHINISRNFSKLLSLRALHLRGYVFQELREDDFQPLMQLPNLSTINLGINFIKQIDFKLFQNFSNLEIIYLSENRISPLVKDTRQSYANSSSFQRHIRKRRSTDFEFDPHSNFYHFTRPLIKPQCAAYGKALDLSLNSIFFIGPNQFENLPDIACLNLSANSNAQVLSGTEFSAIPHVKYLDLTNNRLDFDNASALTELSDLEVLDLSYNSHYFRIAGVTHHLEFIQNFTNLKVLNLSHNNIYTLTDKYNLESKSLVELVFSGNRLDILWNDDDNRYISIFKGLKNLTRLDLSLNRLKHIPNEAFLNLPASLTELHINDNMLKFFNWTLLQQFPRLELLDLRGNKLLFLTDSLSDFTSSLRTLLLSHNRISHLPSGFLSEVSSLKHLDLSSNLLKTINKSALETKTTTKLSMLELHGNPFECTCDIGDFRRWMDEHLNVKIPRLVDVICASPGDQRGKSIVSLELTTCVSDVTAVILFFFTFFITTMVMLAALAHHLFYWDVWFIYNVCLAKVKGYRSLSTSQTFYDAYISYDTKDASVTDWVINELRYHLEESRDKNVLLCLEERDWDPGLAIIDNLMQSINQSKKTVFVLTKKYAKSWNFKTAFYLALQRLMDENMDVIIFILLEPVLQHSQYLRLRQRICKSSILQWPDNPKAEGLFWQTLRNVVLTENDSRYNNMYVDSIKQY

[3] = biological target: T3, Toll-like receptor 7 (Mus musculus, UniProt P58681); test: Agonist activity at mouse TLR7 expressed in HEK293 cells co-expressing NF-kappaB/AP-1 inducible SEAP reporter gene measured for 24 hrs by colorimetric analysis; format: cell-based
T3 sequence (P58681 whole entry): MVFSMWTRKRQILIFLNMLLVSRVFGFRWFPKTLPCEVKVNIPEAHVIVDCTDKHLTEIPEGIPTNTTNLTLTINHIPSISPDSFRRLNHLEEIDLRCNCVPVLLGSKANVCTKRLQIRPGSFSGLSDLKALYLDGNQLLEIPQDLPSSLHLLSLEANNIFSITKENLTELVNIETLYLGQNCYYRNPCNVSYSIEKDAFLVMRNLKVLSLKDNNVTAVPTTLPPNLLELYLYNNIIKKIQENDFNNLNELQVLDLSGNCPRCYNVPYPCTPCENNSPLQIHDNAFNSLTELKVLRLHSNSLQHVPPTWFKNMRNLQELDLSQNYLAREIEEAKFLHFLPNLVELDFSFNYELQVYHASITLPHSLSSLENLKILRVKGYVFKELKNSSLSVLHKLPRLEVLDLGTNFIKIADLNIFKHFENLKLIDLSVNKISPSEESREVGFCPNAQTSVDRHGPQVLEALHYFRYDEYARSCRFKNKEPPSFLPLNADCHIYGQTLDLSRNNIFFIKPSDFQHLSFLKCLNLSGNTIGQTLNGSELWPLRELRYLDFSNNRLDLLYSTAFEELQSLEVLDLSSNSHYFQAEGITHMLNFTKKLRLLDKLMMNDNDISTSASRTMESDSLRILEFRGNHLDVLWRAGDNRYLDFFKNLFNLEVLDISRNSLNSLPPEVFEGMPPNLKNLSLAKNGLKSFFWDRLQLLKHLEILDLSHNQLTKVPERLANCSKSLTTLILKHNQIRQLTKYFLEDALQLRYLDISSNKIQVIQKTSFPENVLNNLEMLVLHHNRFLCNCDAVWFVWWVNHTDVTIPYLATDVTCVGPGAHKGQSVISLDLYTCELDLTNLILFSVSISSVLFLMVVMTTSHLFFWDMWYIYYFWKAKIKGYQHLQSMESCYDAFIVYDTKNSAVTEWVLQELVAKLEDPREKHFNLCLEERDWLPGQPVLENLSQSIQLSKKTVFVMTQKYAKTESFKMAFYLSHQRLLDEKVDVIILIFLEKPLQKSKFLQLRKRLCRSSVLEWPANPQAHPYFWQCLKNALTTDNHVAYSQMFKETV

[4] = biological target: T4, Toll-like receptor 7 (Mus musculus) (UniProt P58681); test: Agonist activity at mouse TLR7 expressed in HEK293 cells co-expressing NF-kappaB/AP-1 inducible SEAP reporter gene at 33 uM measured for 24 hrs by colorimetric analysis relative to control; format: cell-based
T4 sequence (whole entry): T3 sequence (P58681 whole entry)

[5] = species on record: Mus musculus; test: Immunostimulatory activity in BALB/c mouse vaccinated with inactivated PR8 (A/H1N1) assessed as decrease in body weight at 1 ug measured 3 weeks after immunization; format: functional, organism-based; conditions: dose 1.0 µg
[6] = In-vivo activation of mouse TLR7-mediated innate immune response in immunocompetent BALB/c mouse vaccinated with inactivated influenza A virus H1N1 A/Puerto Rico/8/1934 assessed as fold increase in IgG2a level in serum at 1 ug measured 3 weeks after immunization in presence of N6-butyl-7-(4-((diethylamino)methyl)-2-methoxybenzyl)-7H-purine-2,6-diamine by ELISA analysis; format: functional; conditions: dose 1 µg
[7] = species on record: Mus musculus; test: Immunostimulatory activity in BALB/c mouse vaccinated with inactivated PR8 (A/H1N1) assessed as animal survival at 1 ug measured 3 weeks after immunization; format: functional; conditions: dose 1 µg
[8] = species on record: Mus musculus; test: Immunostimulatory activity in BALB/c mouse vaccinated with inactivated PR8 (A/H1N1) assessed as animal survival at 0.01 ug measured 3 weeks after immunization; format: functional; conditions: dose 0.01 µg
[9] = system: Mus musculus; test: In-vivo protection against influenza A virus PR8 (A/H1N1) infection in immunocompetent BALB/c mouse model assessed as animal survival rate at 0.01 ug pretreated with compound for 3 weeks followed by viral infection and measured daily for 2 weeks; format: functional; conditions: dose 0.01 µg; time 5 weeks
[10] = system: Mus musculus; test: In-vivo protection against influenza A virus PR8 (A/H1N1) infection in immunocompetent BALB/c mouse model assessed as animal survival rate at 1 ug pretreated with compound for 3 weeks followed by viral infection and measured daily for 2 weeks; format: functional; conditions: dose 1 µg; time 5 weeks
[11] = species on record: Mus musculus; test: Immunostimulatory activity in BALB/c mouse vaccinated with inactivated PR8 (A/H1N1) assessed as animal survival at 0.1 ug measured 3 weeks after immunization; format: functional; conditions: dose 0.1 µg
[12] = biological target: T1, Toll-like receptor 7; test: Agonist activity at TLR7 (unknown origin)

In the case of `CCCCNc1nc(N)nc2ncn(Cc3ccc(CN4CCN(C)CC4)cc3OC)c12`, the EC50 [1] is reported as 24.7 nM and the EC50 ([2]; hek-blue tlr) is reported as less than 10000 nM.
For `CCCN(CCC)C(=O)C1=Cc2ccc(-c3ccc(C(=O)N4CCCC4)cc3)cc2N=C(N)C1` [MOTOLIMOD], the EC50 [2] was 83.2 nM.
Work on `CCCCNc1nc(N)nc2ncn(Cc3ccc(CN(C)C)cc3OC)c12` yielded an EC50 [1] of 29.7 nM.
In the case of `CCCCOc1nc(N)c2c(n1)N(Cc1cccc(CN3CCCC3)c1)CC(=O)N2` [VESATOLIMOD], the EC50 [3] is reported as 4570 nM, the Emax [4] is reported as 0.657% and the Activity [5] is reported as “Active”. The “fold change (FC)” value [6] was 5.2.
With `CCOCc1nc2c(N)nc3ccccc3c2n1CC(C)(C)C` the EC50 [3] was 299 nM.
For `COc1cc(CO)ccc1Cn1cnc2nc(N)nc(NCc3ccccc3)c21`, the EC50 [1] was 2800 nM.
Molecule `CCCCNc1nc(N)nc2ncn(Cc3ccc(CN(CC)CC)cc3OC)c12` has an EC50 [1] of 17.5 nM, a Survival [7] of 66.7% and a Survival [8] of 16.7%. It also gave an EC50 [3] of 41.7 nM, a Survival [9] of 16.7% and a Survival [10] of 100%. It also gave a Survival [11] of 33.3%.
In the case of `CC(C)Cn1cnc2c(N)nc3ccccc3c21` [IMIQUIMOD], the EC50 [12] is reported as 202 nM.
In the case of `CCCCNc1nc(N)nc2ncn(Cc3ccc(CN4CCNCC4)cc3OC)c12`, the EC50 [1] is reported as 169 nM.
In the case of `CCCCNc1nc(N)nc2ncn(Cc3ccc(CN4CCCCC4)cc3OC)c12`, the EC50 [1] is reported as 20.5 nM.
